According to PMC10838953:

What was measured:
[1] = biological target: PAK7 (Homo sapiens, UniProt Q9P286); assay: biochemical; conditions: read-out: %Ctrl @ 2000nM
[2] = biological target: CAMK1D (Homo sapiens, UniProt Q8IU85); assay: biochemical; conditions: read-out: %Ctrl @ 2000nM
[3] = biological target: ERBB4 (Homo sapiens, UniProt Q15303); assay: biochemical; conditions: read-out: %Ctrl @ 2000nM
[4] = biological target: MAP3K4 (Homo sapiens, UniProt Q9Y6R4); assay: biochemical; conditions: read-out: %Ctrl @ 2000nM
[5] = test system: HEK293 cells; conditions: high concentrations
[6] = biological target: BUB1 (Homo sapiens, UniProt O43683); assay: biochemical; conditions: read-out: %Ctrl @ 2000nM
[7] = biological target: LYN (Homo sapiens, UniProt P07948); assay: biochemical; conditions: read-out: %Ctrl @ 2000nM
[8] = test system: 786-O cells; conditions: 48 h
[9] = biological target: SRC (Homo sapiens, UniProt P12931); assay: biochemical; conditions: read-out: %Ctrl @ 2000nM
[10] = biological target: VEGFR2 (Homo sapiens, UniProt P35968); assay: biochemical; conditions: read-out: %Ctrl @ 2000nM
Chain of VEGFR2 (P35968 20-1356): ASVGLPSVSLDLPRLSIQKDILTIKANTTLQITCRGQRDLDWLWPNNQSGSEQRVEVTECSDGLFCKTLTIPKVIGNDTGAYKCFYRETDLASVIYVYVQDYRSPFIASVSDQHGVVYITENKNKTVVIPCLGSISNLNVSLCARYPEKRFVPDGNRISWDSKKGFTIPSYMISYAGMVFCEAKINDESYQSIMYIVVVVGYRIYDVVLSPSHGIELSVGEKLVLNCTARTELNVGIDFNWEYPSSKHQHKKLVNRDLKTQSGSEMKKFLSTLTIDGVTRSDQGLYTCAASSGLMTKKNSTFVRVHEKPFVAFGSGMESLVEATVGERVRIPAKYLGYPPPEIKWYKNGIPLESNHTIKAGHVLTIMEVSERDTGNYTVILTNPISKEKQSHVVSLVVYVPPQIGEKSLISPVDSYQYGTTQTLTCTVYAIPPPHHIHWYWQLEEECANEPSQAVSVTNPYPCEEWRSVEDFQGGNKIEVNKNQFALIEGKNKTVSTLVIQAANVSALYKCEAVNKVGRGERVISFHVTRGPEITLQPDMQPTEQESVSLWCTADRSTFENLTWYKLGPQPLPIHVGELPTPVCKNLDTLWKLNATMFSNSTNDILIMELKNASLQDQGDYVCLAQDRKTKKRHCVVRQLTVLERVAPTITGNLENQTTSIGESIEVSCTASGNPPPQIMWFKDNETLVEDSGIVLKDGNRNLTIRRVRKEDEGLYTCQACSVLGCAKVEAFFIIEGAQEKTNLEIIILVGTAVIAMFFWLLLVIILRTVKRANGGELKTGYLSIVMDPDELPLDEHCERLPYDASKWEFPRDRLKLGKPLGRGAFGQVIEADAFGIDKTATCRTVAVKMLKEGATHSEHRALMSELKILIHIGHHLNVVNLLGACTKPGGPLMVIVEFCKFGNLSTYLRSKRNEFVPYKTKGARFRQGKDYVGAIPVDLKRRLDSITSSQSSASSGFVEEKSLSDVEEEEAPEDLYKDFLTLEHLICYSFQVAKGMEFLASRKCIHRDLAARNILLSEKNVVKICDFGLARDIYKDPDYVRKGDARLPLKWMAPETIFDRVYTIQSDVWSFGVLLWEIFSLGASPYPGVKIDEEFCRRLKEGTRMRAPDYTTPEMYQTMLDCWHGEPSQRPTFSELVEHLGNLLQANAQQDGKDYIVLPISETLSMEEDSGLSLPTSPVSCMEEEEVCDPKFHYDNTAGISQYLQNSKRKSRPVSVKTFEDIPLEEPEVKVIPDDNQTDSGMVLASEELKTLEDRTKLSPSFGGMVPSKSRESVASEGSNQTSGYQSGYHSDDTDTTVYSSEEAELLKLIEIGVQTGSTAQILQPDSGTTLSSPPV

[11] = biological target: PKAC-alpha (Homo sapiens, UniProt P17612); assay: biochemical; conditions: read-out: %Ctrl @ 2000nM
[12] = biological target: CHEK1 (Homo sapiens, UniProt O14757); assay: biochemical; conditions: read-out: %Ctrl @ 2000nM
[13] = biological target: GRK4 (Homo sapiens, UniProt P32298); assay: biochemical; conditions: read-out: %Ctrl @ 2000nM
Chain of GRK4 (P32298 whole entry): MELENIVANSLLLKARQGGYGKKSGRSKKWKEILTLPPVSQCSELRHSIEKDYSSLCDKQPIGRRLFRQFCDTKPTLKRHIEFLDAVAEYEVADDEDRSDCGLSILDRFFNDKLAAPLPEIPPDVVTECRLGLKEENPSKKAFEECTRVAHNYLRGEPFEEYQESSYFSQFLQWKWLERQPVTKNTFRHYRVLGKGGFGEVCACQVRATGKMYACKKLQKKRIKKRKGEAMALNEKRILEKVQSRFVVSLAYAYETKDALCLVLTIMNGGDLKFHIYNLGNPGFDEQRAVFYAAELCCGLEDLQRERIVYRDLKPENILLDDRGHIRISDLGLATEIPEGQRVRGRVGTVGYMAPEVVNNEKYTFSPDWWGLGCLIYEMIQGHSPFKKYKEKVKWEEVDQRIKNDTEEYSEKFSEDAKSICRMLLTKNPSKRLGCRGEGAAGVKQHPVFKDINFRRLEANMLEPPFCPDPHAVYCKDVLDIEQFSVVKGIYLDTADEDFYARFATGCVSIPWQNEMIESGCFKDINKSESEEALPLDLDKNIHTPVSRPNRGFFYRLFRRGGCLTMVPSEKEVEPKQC

[14] = biological target: MEK6 (Homo sapiens, UniProt P52564); assay: biochemical; conditions: read-out: %Ctrl @ 2000nM
[15] = biological target: LCK (Homo sapiens, UniProt P06239); assay: biochemical; conditions: read-out: %Ctrl @ 2000nM
[16] = biological target: ROCK1 (Homo sapiens, UniProt Q13464); assay: biochemical; conditions: read-out: %Ctrl @ 2000nM
[17] = biological target: RET (Homo sapiens, UniProt P07949); assay: biochemical; conditions: read-out: %Ctrl @ 2000nM
Chain of RET (P07949 29-1114): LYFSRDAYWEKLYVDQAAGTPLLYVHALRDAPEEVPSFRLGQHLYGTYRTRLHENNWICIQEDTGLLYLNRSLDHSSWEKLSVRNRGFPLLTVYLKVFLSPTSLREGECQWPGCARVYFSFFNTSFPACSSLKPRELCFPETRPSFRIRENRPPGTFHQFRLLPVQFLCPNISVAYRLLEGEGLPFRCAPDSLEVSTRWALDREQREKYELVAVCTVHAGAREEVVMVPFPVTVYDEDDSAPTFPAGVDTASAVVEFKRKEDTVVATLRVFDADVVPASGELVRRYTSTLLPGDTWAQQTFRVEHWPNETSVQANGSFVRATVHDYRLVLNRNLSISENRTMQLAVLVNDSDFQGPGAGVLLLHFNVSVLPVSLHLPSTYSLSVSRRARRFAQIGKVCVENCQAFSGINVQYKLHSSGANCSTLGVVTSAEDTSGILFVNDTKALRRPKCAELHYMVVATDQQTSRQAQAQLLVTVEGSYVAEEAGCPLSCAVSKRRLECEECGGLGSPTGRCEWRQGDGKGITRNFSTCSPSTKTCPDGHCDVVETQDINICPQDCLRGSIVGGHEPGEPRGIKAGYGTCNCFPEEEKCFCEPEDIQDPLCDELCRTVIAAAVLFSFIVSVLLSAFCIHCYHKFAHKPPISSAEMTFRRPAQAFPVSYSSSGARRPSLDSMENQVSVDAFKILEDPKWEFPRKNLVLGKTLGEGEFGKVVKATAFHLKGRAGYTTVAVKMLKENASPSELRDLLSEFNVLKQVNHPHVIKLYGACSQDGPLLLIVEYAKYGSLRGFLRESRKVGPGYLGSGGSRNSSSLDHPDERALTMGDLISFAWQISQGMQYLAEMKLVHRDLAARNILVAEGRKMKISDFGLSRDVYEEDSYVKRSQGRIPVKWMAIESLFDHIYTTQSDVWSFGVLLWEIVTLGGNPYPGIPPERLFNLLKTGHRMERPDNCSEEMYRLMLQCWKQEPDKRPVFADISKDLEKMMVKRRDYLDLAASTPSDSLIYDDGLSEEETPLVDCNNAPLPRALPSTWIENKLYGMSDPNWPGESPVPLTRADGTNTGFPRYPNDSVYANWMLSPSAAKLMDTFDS

[18] = biological target: MAP4K3 (Homo sapiens, UniProt Q8IVH8); assay: biochemical; conditions: read-out: %Ctrl @ 2000nM
[19] = biological target: STK39 (Homo sapiens, UniProt Q9UEW8); assay: biochemical; conditions: read-out: %Ctrl @ 2000nM
[20] = biological target: MUSK (Homo sapiens, UniProt O15146); assay: biochemical; conditions: read-out: %Ctrl @ 2000nM
[21] = biological target: NEK3 (Homo sapiens, UniProt P51956); assay: biochemical; conditions: read-out: %Ctrl @ 2000nM
[22] = biological target: NEK6 (Homo sapiens, UniProt Q9HC98); assay: biochemical; conditions: read-out: %Ctrl @ 2000nM
[23] = biological target: CDKL3 (Homo sapiens, UniProt Q8IVW4); assay: biochemical; conditions: read-out: %Ctrl @ 2000nM
[24] = biological target: EPHA3 (Homo sapiens, UniProt P29320); assay: biochemical; conditions: read-out: %Ctrl @ 2000nM
[25] = biological target: TYK2(JH1domain-catalytic) (Homo sapiens, UniProt P29597); assay: biochemical; conditions: read-out: %Ctrl @ 2000nM
[26] = biological target: WEE1 (Homo sapiens, UniProt P30291); assay: biochemical; conditions: read-out: %Ctrl @ 2000nM
[27] = biological target: PIM2 (Homo sapiens, UniProt Q9P1W9); assay: biochemical; conditions: read-out: %Ctrl @ 2000nM
[28] = biological target: ARK5 (Homo sapiens, UniProt O60285); assay: biochemical; conditions: read-out: %Ctrl @ 2000nM
[29] = test system: RPTEC (renal proximal tubule epithelial cells); conditions: high concentrations
[30] = biological target: NIK (Homo sapiens, UniProt Q99558); assay: biochemical; conditions: read-out: %Ctrl @ 2000nM
[31] = biological target: MAP3K3 (Homo sapiens, UniProt Q99759); assay: biochemical; conditions: read-out: %Ctrl @ 2000nM
Chain of MAP3K3 (Q99759 whole entry): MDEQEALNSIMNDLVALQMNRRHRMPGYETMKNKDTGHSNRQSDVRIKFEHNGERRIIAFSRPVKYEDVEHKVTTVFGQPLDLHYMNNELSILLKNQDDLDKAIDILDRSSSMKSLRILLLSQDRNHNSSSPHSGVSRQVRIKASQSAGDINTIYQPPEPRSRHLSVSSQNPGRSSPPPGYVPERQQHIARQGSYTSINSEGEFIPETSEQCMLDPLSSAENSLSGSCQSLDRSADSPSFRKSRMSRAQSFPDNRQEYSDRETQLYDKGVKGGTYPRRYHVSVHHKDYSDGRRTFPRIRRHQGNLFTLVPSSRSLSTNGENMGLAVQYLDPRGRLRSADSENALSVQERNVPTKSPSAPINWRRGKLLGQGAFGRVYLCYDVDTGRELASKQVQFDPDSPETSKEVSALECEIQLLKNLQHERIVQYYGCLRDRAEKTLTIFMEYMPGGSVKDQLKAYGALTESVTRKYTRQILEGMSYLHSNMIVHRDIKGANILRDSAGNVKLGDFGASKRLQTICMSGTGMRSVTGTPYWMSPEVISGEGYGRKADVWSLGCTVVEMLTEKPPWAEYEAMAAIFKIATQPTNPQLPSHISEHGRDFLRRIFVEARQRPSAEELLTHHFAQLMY

[32] = biological target: FER (Homo sapiens, UniProt P16591); assay: biochemical; conditions: read-out: %Ctrl @ 2000nM
[33] = biological target: ABL1(T315I)-nonphosphorylated (Homo sapiens, UniProt P00519, T315I); assay: biochemical; conditions: read-out: %Ctrl @ 2000nM
[34] = biological target: PIK3C2B (Homo sapiens, UniProt O00750); assay: biochemical; conditions: read-out: %Ctrl @ 2000nM
[35] = biological target: PFTAIRE2 (Homo sapiens, UniProt Q96Q40); assay: biochemical; conditions: read-out: %Ctrl @ 2000nM
[36] = biological target: ASK2 (Homo sapiens, UniProt O95382); assay: biochemical; conditions: read-out: %Ctrl @ 2000nM
[37] = biological target: SGK (Homo sapiens, UniProt O00141); assay: biochemical; conditions: read-out: %Ctrl @ 2000nM
[38] = biological target: LOK (Homo sapiens, UniProt O94804); assay: biochemical; conditions: read-out: %Ctrl @ 2000nM
[39] = biological target: CDKL5 (Homo sapiens, UniProt O76039); assay: biochemical; conditions: read-out: %Ctrl @ 2000nM
[40] = biological target: SIK (Homo sapiens, UniProt P57059); assay: biochemical; conditions: read-out: %Ctrl @ 2000nM
[41] = biological target: TBK1 (Homo sapiens, UniProt Q9UHD2); assay: biochemical; conditions: read-out: %Ctrl @ 2000nM
[42] = biological target: PFTK1 (Homo sapiens, UniProt O94921); assay: biochemical; conditions: read-out: %Ctrl @ 2000nM
[43] = biological target: CTK (Homo sapiens, UniProt P42679); assay: biochemical; conditions: read-out: %Ctrl @ 2000nM
[44] = biological target: PIK3CA(E545A) (Homo sapiens, UniProt P42336, E545A); assay: biochemical; conditions: read-out: %Ctrl @ 2000nM

Chain of ERBB4 (Q15303 26-1308): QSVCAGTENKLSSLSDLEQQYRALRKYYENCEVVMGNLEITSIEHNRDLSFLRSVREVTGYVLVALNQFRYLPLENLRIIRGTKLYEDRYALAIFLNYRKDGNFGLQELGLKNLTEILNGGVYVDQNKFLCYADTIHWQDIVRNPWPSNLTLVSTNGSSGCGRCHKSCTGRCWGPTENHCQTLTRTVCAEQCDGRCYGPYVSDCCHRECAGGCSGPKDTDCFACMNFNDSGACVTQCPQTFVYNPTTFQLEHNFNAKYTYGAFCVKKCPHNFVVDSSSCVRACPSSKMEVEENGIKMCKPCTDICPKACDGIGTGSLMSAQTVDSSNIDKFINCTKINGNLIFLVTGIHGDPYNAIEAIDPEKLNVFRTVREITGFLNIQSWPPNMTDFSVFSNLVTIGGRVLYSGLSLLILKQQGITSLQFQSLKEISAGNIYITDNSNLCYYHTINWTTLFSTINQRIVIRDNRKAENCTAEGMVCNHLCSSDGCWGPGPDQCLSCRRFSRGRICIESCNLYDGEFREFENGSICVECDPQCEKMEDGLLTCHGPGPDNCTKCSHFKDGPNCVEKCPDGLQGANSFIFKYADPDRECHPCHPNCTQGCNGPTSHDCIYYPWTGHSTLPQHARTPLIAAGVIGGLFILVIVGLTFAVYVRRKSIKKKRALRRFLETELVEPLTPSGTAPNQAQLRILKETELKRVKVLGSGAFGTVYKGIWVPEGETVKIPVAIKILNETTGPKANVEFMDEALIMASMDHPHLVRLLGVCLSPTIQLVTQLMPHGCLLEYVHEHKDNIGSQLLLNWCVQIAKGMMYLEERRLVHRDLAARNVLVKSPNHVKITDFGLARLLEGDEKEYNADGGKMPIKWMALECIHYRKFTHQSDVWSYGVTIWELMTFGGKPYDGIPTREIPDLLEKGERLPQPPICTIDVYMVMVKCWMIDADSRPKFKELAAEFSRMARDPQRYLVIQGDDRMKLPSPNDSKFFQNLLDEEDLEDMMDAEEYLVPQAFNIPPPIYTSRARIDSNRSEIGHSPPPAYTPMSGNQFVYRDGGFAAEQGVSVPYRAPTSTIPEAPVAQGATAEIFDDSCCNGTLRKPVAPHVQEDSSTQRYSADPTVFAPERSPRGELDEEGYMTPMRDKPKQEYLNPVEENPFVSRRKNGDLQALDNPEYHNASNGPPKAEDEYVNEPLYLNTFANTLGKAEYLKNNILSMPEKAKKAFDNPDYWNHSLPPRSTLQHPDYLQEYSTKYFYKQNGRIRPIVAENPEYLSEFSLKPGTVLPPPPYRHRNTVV

For `CC(C)COC(=O)c1[nH]c2ccc(F)cc2c1-c1cn(CC2CCN(CCNS(=O)(=O)c3ccc(CC(C)C)cc3)CC2)nn1` [AB668, isobutyl 5-fluoro-3-(1-((1-(2-((4-isobutylphenyl)sulfonamido)ethyl)piperidin-4-yl)methyl)-1H-1,2,3-triazol-4-yl)-1H-indole-2-carboxylate], the remaining activity at 2 µM [1] was 85%, the remaining activity at 2 µM [2] was 96% and the remaining activity at 2 µM [3] was 97%. The remaining activity at 2 µM [4] was 90%, the cytotoxicity [5] was “no cytotoxicity” and the remaining activity at 2 µM [6] was 94%. The remaining activity at 2 µM [7] was 88%, the “proliferation, cell death and apoptosis” value ([8]; 4 μM) was “induced significant cell proliferation arrest associated with cell death and apoptosis” and the “renal cancer cell death, dose dependent” value ([8]; low concentration (<5μM)) was “more efficient than CX-4945 and SGC-CK2-1”. The remaining activity at 2 µM [9] was 92%, the remaining activity at 2 µM [10] was 98% and the remaining activity at 2 µM [11] was 84%. It also gave a remaining activity at 2 µM [12] of 95%, a remaining activity at 2 µM [13] of 98% and a remaining activity at 2 µM [14] of 83%. The remaining activity at 2 µM [15] was 99%, the remaining activity at 2 µM [16] was 88% and the remaining activity at 2 µM [17] was 87%. For the same molecule, the remaining activity at 2 µM [18] was 82%, the remaining activity at 2 µM [19] was 90% and the remaining activity at 2 µM [20] was 92%. The remaining activity at 2 µM [21] was 71%, the remaining activity at 2 µM [22] was 87% and the remaining activity at 2 µM [23] was 88%. For the same molecule, the remaining activity at 2 µM [24] was 86%, the remaining activity at 2 µM [25] was 85% and the remaining activity at 2 µM [26] was 96%. For the same molecule, the remaining activity at 2 µM [27] was 84%, the remaining activity at 2 µM [28] was 83% and the cytotoxicity [29] was “no cytotoxicity”. For the same molecule, the remaining activity at 2 µM [30] was 72%, the remaining activity at 2 µM [31] was 100% and the remaining activity at 2 µM [32] was 100%. It also gave a remaining activity at 2 µM [33] of 64%, a remaining activity at 2 µM [34] of 100% and a remaining activity at 2 µM [35] of 88%. For the same molecule, the remaining activity at 2 µM [36] was 75%, the remaining activity at 2 µM [37] was 100% and the remaining activity at 2 µM [38] was 100%. For the same molecule, the remaining activity at 2 µM [39] was 91%, the remaining activity at 2 µM [40] was 97% and the remaining activity at 2 µM [41] was 87%. It also gave a remaining activity at 2 µM [42] of 84%, a remaining activity at 2 µM [43] of 82% and a remaining activity at 2 µM [44] of 100%.
